Measured values published in publication PMC11767582, “Synthesis and Biological Evaluation of New cis-Restricted Triazole Analogues of Combretastatin A-4” (Molecules, 2025).
Like-named read-outs stand apart in the source and are kept apart here.

Legend:
[1] = MTT cytotoxicity (growth inhibition) assay, HEK-293 (non-tumor); assay type: cell-based; conditions: human, HEK-293 embryonic kidney cells (non-tumor)
Protocol: (§1) • Cell culture. Cell culture media were purchased from Gibco (Grand Island, NY, USA). Fetal bovine serum (FBS) was a product of Harlan-Seralab (Belton, UK). Supplements and other chemicals not listed in this section were obtained from Sigma Chemical Co. (St. Louis, MO, USA). Plastics for cell culture were supplied by Thermo Scientific BioLite. All tested compounds were dissolved in DMSO at a concentration of 20 mM and stored at –20 °C until use. HT-29, A-549, and HEK-293 cell lines were maintained in a Dulbecco’s modified Eagle’s medium (DMEM) containing glucose (1 g/L), glutamine (2 mM), penicillin (50 μg/mL), streptomycin (50 μg/mL), and amphotericin B (1.25 μg/mL), supplemented with 10% FBS. • Cytotoxicity assays. 5 × 10^3 cells per well were incubated in 96-well plates with serial dilutions of the tested compounds in a total volume of 100 μL of their growth media. 3-(4,5-dimethylthiazol-2-yl)-2,5-diphenyltetrazolium bromide (MTT; Sigma Chemical Co.) dye reduction assay in 96-well microplates was used. Then, 10 μL of MTT (5 mg/mL in phosphate-buffered saline, PBS) was added to each well after 2 days of incubation (37 °C, 5% CO2 in a humid atmosphere). The plate was incubated for a further 3 h (37 °C). After that, the supernatant was discarded and 100 μL of DMSO were added in order to dissolve formazan crystals. The absorbance was read at 550 nm by spectro-photometry. For all concentrations of compound, cell viability was expressed as the percentage of the ratio between the mean absorbance of treated cells and the mean absorbance of untreated cells. Three independent experiments were performed, and the IC50 values (i.e., concentration half inhibiting cell proliferation) were graphically determined using GraphPad Prism 9 software.

[2] = test system: human colon cancer cell line HT-29; assay: MTT cytotoxicity (growth inhibition) assay, HT-29; assay type: cell-based
Protocol: as §1

[3] = test system: human lung cancer cell line A-549; assay: MTT cytotoxicity (growth inhibition) assay, A-549; assay type: cell-based
Protocol: as §1

[4] = test system: K562 leukemia cancer cell line; design: method as in PMID 18396050; conditions: ref [15], cited from earlier work
[5] = test system: human lung cancer cell line A-549; design: method as in PMID 32033084; conditions: reference compound; ref [30]; read-out: Cytotoxicity IC50 A-549; cited from earlier work
[6] = test system: human embryonic kidney cell line HEK-293; design: method as in PMID 32033084; conditions: reference compound; ref [30]; read-out: Cytotoxicity IC50 HEK-293; cited from earlier work
[7] = test system: human colon cancer cell line HT-29; design: method as in PMID 32033084; conditions: reference compound; ref [30]; read-out: Cytotoxicity IC50 HT-29; cited from earlier work
HT-29 = test system: HT-29; design: method as in PMID 18396050, PMID 18681482, PMID 22137934, PMID 22304851, PMID 24222525; conditions: known triazole analogues of CA-4; ref [15],[16],[17],[18],[19],[20]; read-out: IC50 HT-29 (Figure 2); cited from earlier work
[8] = HT-29, 48 h, read-out: Cytotoxicity IC50 HT-29
[9] = A549, 48 h, read-out: Cytotoxicity IC50 A-549
[10] = known triazole analogues of CA-4, read-out: IC50 K562 (Figure 2)

Structure (SMILES) | IC50 at 48 h [1] | IC50 [2, 8] | IC50 [3, 9] | further results
COc1cc(-n2nncc2-c2ccccc2)cc(OC)c1OC [3a, 5-phenyl-1-(3,4,5-trimethoxyphenyl)-1H-1,2,3-triazole] | > 200 µM | > 100 µM | > 200 µM | –
COc1cc(-n2nncc2-c2ccccc2Br)cc(OC)c1OC [3b, 5-(2-bromophenyl)-1-(3,4,5-trimethoxyphenyl)-1H-1,2,3-triazole] | > 200 µM | > 100 µM | > 100 µM | –
COc1cc(-n2nncc2-c2ccccc2[N+](=O)[O-])cc(OC)c1OC [3c, 5-(2-nitrophenyl)-1-(3,4,5-trimethoxyphenyl)-1H-1,2,3-triazole] | > 200 µM | > 100 µM | > 200 µM | –
COc1cc(-n2nncc2-c2ccc(C)cc2)cc(OC)c1OC [3d, 5-(p-tolyl)-1-(3,4,5-trimethoxyphenyl)-1H-1,2,3-triazole] | > 200 µM | > 100 µM | > 200 µM | –
COc1cc(-n2nncc2-c2ccc(C(F)(F)F)cc2)cc(OC)c1OC [3e, 5-(4-(trifluoromethyl)phenyl)-1-(3,4,5-trimethoxyphenyl)-1H-1,2,3-triazole] | > 200 µM | 54 ± 3 µM | > 100 µM | –
COc1cc(-n2nncc2-c2ccc(F)cc2)cc(OC)c1OC [3f, 5-(4-fluorophenyl)-1-(3,4,5-trimethoxyphenyl)-1H-1,2,3-triazole] | > 200 µM | > 200 µM | > 200 µM | –
COc1cc(-n2nncc2-c2ccc(Cl)cc2)cc(OC)c1OC [3g, 5-(4-chlorophenyl)-1-(3,4,5-trimethoxyphenyl)-1H-1,2,3-triazole] | > 200 µM | > 100 µM | > 100 µM | –
COc1cc(-n2nncc2-c2ccc(Br)cc2)cc(OC)c1OC [3h, 5-(4-bromophenyl)-1-(3,4,5-trimethoxyphenyl)-1H-1,2,3-triazole] | > 200 µM | > 100 µM | > 100 µM | –
COc1ccc(-c2cnnn2-c2cc(OC)c(OC)c(OC)c2)cc1 [3i, 5-(4-methoxyphenyl)-1-(3,4,5-trimethoxyphenyl)-1H-1,2,3-triazole] | 35 ± 9 µM | 0.02 ± 0.009 µM | 0.022 ± 0.007 µM | IC50 ([4]; previously described, read-out: IC50 K562 leukemia cancer cell line): 0.027 µM
CCOc1ccc(-c2cnnn2-c2cc(OC)c(OC)c(OC)c2)cc1 [3j, 5-(4-ethoxyphenyl)-1-(3,4,5-trimethoxyphenyl)-1H-1,2,3-triazole] | 19 ± 4 µM | 0.0021 ± 0.0009 µM | 5.8 ± 0.8 µM | IC50 ([2]; HT-29, 48 h incubation, rounded value, read-out: IC50 HT-29): 0.002 µM
COc1ccc(-c2cnnn2-c2cc(OC)c(OC)c(OC)c2)c(Br)c1 [3k, 5-(2-bromo-4-methoxyphenyl)-1-(3,4,5-trimethoxyphenyl)-1H-1,2,3-triazole] | > 100 µM | 56 ± 4 µM | 33 ± 2 µM | –
COc1ccc(Br)c(-c2cnnn2-c2cc(OC)c(OC)c(OC)c2)c1 [3l, 5-(2-bromo-5-methoxyphenyl)-1-(3,4,5-trimethoxyphenyl)-1H-1,2,3-triazole] | > 200 µM | > 100 µM | > 200 µM | –
CCOc1ccc(-c2cnnn2-c2cc(OC)c(OC)c(OC)c2)cc1Br [3m, 5-(3-bromo-4-ethoxyphenyl)-1-(3,4,5-trimethoxyphenyl)-1H-1,2,3-triazole] | > 200 µM | 20 ± 5 µM | 59 ± 1 µM | –
COc1ccc(-c2cnnn2-c2cc(OC)c(OC)c(OC)c2)cc1Cl [3n, 5-(3-chloro-4-methoxyphenyl)-1-(3,4,5-trimethoxyphenyl)-1H-1,2,3-triazole] | 0.025 ± 0.008 µM | 0.021 ± 0.006 µM | 0.0032 ± 0.0009 µM | IC50 ([3]; A549, 48 h incubation, rounded value, read-out: IC50 A-549): 0.003 µM
COc1ccc(-c2cnnn2-c2cc(OC)c(OC)c(OC)c2)cc1OC [3o, 5-(3,4-dimethoxyphenyl)-1-(3,4,5-trimethoxyphenyl)-1H-1,2,3-triazoletriazole] | > 200 µM | > 100 µM | > 200 µM | –
COc1cc(-n2nncc2-c2ccc(O)c(Br)c2)cc(OC)c1OC [3p, 2-bromo-4-(1-(3,4,5-trimethoxyphenyl)-1H-1,2,3-triazol-5-yl)phenol] | > 200 µM | > 200 µM | > 200 µM | –
COc1cc(-n2nncc2-c2ccc(O)c(O)c2)cc(OC)c1OC [3q, 4-(1-(3,4,5-trimethoxyphenyl)-1H-1,2,3-triazol-5-yl)benzene-1,2-diol] | > 200 µM | > 200 µM | > 200 µM | –
COc1ccc(/C=C\c2cc(OC)c(OC)c(OC)c2)cc1O [CA-4, combretastatin A-4] | – | – | – | IC50 [5]: 0.428 ± 0.004 µM; IC50 [6]: 25 ± 3 µM; IC50 [7]: 4.2 ± 0.5 µM
COc1ccc(-c2cnnn2-c2cc(OC)c(OC)c(OC)c2)cc1Br [R^1 = H, R^2 = Br] | – | – | – | IC50 [4, 10]: 0.057 µM
COc1ccc(-c2cnnn2-c2cc(OC)c(OC)c(OC)c2)cc1N [R^1 = H, R^2 = NH2] | – | – | – | IC50 [4, 10]: 0.011 µM
COc1ccc(-c2cnnn2-c2cc(OC)c(OC)c(OC)c2)cc1[N+](=O)[O-] [R^1 = H, R^2 = NO2] | – | – | – | IC50 [4, 10]: 0.46 µM
COc1ccc(-c2cnnn2-c2cc(OC)c(OC)c(OC)c2)c(F)c1F [R^1 = R^2 = F] | – | – | – | IC50 (HT-29): 1.9 µM
COc1ccc(-c2cnnn2-c2cc(OC)c(OC)c(OC)c2)c(N)c1N [R^1 = R^2 = NH2] | – | – | – | IC50 (HT-29): 17.2 µM
COc1cc(-n2nncc2-c2ccc(OC)c([N+](=O)[O-])c2[N+](=O)[O-])cc(OC)c1OC [R^1 = R^2 = NO2] | – | – | – | IC50 (HT-29): 12 µM
